From patent US12037345B2, “Heterobicyclic compounds for inhibiting the activity of SHP2” (TAIHO PHARMACEUTICAL CO., LTD., priority 2018, dated 2024)
Like-named read-outs stand apart in the source and are kept apart here.

Columns and labels:
[1] = test system: pERK (phospho-p44/42 ERK) in HCC827 cells; test: Cellular pERK Inhibition Assay, Method A (In-Cell Western); assay type: cell-based; conditions: Homo sapiens
Method: Cellular pERK Inhibition Assay
pERK levels were determined using the In-Cell Western assay. HCC827 cells (ATCC, Manassas, USA) were seeded into 384-well plates at a density of 1×10^4 cells/well in RPMI1640 medium supplemented with 10% FBS and incubated 24h. Compounds were diluted first in DMSO and then into serum-free medium, before being added to cells in quadruplicate to give a final concentration of 0.2% DMSO. Plates were incubated at 37° C. for the indicated time in a humidified atmosphere of 5% CO2 in air.
Following compound treatment, cells were fixed with formalin neutral buffer solution for 20 minutes at room temperature. Plates were washed three times with 0.1% Triton-X in PBS and cells were blocked for 1 hour with Odyssey blocking buffer (LI-COR, #927-40000). After shaking out blocking buffer, cells were incubated with phospho-p44/42 ERK antibody (Cell Signalling Technology, #4370, 1:200) diluted in Odyssey blocking buffer at 4° C. overnight. Plates were washed again and cells were incubated for 1 hour with Goat anti-Rabbit […] (LI-COR, #926-32211, 1:800) diluted in Odyssey blocking buffer. After washing and removing wash solution completely using a centrifuge machine, cells were scanned on the Odyssey (LI-COR), following the manufacturer's instructions. The average signal from blank wells (no cells added) was subtracted from the signals from each sample well. Levels of pERK were then expressed as percent of control, using DMSO treated samples as control. The relative IC50 values were calculated in quadruplicate from the normalized dose-response plots using four parameter logistic curve fit. The Experiment for each compound was carried out in one time or multiple times, and the IC50 values were shown as a single value (for a compound measured in a single experiment) or an average value (for a compound measured in multiple experiments).

[2] = target: SHP2 (Homo sapiens (Human), UniProt Q06124); test: SHP2 Biochemical Assay (DiFMUP conversion, pIRS1-activated)
SHP2, sequence (Q06124 whole entry): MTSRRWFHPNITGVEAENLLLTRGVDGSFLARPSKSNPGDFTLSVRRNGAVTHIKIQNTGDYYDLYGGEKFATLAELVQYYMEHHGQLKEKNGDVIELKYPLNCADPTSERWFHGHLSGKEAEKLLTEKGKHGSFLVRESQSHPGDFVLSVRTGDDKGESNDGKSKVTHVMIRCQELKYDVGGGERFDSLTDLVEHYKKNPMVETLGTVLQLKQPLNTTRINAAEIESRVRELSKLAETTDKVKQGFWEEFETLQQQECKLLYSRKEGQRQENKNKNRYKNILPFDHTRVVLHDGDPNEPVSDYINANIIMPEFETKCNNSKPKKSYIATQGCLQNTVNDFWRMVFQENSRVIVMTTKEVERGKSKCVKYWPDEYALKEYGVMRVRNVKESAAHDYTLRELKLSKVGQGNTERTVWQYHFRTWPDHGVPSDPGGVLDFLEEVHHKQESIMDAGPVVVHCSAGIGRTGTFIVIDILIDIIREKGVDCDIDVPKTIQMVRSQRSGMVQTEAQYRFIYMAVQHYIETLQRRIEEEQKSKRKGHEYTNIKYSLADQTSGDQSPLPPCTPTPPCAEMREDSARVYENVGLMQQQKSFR
Method: SHP2 activity was monitored by measuring the conversion of the surrogate substrate 6,8-difluoromethylumbelliferyl phosphate (DiFMUP) to the fluorescent product, 6,8-difluoromethylumbelliferone (DiFMU).
SHP2 was pre-incubated with test compounds and the activating peptide pIRS1 (H2N-LN(pY)IDLDLV-(PEG)8-LST(pY)ASINFQK-amide) for 30 min, prior to addition of the 6,8-difluoromethylumbelliferyl phosphate (DiFMUP), (Thermo Fisher D6567). Final assay concentrations were 10 pM SHP2, […] pIRS1 peptide, 50 μM DiFMUP, 25 mM Bis-Tris propane, pH 7.0, 150 mM NaCl, 0.05% (v/v) Tween-20, 0.5 mM TCEP and 5% (v/v) DMSO. Rates of reaction were then measured over 30 min by monitoring fluorescence on a BMG Pherastar reader at excitation 360 nm/emission 450 nm. IC50 values were calculated in singlicate from the normalized dose-response plots using four parameter logistic curve fit. The Experiment for each compound was carried out in one time or multiple times, and the IC50 values were shown as a single value (for a compound measured in a single experiment) or an average value (for a compound measured in multiple experiments).

[3] = Table 19, head prints unit as "-M", read-out: pERK (IC50) Method A
[4] = Table 19, head prints unit as "-M"

SMILES | IC50 ([1]; Table 20, read-out: pERK (IC50, μM) Method A) | IC50 ([2]; Table 20) | IC50 [1, 3] | IC50 [2, 4]
Cn1nc2ccc(-c3n[nH]c4nc(N5[C@H]6CC[C@@H]5[C@](C)(N)C6)n(C)c(=O)c34)c(Cl)c2c1Cl (racemic) [Example 175, rac-6-((1R,2R,4S)-2-amino-2-methyl-7-azabicyclo[2.2.1]heptan-7-yl)-3-(3,4-dichloro-2-methyl-2H-indazol-5-yl)-5-methyl-1,5-dihydro-4H-pyrazolo[3,4-d]pyrimidin-4-one] | 0.22 µM | 12 nM | – | –
Cn1cc2c(Cl)c(-c3c[nH]c4nc(N5C[C@H]6CC[C@@H]5[C@@H]6N)n(C)c(=O)c34)ccc2n1 (stereo in doubt) [Example 157, rel-2-((1R,4R,7R)-7-Amino-2-azabicyclo[2.2.1]heptan-2-yl)-5-(4-chloro-2-methyl-2H-indazol-5-yl)-3-methyl-3,7-dihydro-4H-pyrrolo[2,3-d]pyrimidin-4-one] | – | – | 0.022 µM | 3.7 nM
Cn1cc2c(Cl)c(-c3c[nH]c4nc(N5C6CCC5CNC6)n(C)c(=O)c34)ccc2n1 [Example 1, 2-(3,8-diazabicyclo[3.2.1]octan-8-yl)-5-(4-chloro-2-methyl-2H-indazol-5-yl)-3-methyl-3,7-dihydro-4H-pyrrolo[2,3-d]pyrimidin-4-one] | – | – | 0.14 µM | 14 nM
CCn1cc2c(Cl)c(-c3c[nH]c4nc(N5CCC(C)(CN)CC5)n(C)c(=O)c34)ccc2n1 [Example 2, 2-(4-(aminomethyl)-4-methylpiperidin-1-yl)-5-(4-chloro-2-ethyl-2H-indazol-5-yl)-3-methyl-3,7-dihydro-4H-pyrrolo[2,3-d]pyrimidin-4-one] | – | – | 0.13 µM | 14 nM
CCn1cc2c(Cl)c(-c3c[nH]c4nc(N5CCC(C)(N)CC5)n(C)c(=O)c34)ccc2n1 [Example 3, 2-(4-amino-4-methylpiperidin-1-yl)-5-(4-chloro-2-ethyl-2H-indazol-5-yl)-3-methyl-3,7-dihydro-4H-pyrrolo[2,3-d]pyrimidin-4-one] | – | – | 0.21 µM | 15 nM
CCn1cc2c(Cl)c(-c3c[nH]c4nc(N5[C@@H]6CC[C@H]5C[C@H](N)C6)n(C)c(=O)c34)ccc2n1 [Example 4, 2-(exo-3-amino-8-azabicyclo[3.2.1]octan-8-yl)-5-(4-chloro-2-ethyl-2H-indazol-5-yl)-3-methyl-3,7-dihydro-4H-pyrrolo[2,3-d]pyrimidin-4-one] | – | – | 0.12 µM | 7.5 nM
CCn1cc2c(Cl)c(-c3c[nH]c4nc(N5[C@@H]6CC[C@H]5C[C@@H](N)C6)n(C)c(=O)c34)ccc2n1 [Example 5, 2-(endo-3-amino-8-azabicyclo[3.2.1]octan-8-yl)-5-(4-chloro-2-ethyl-2H-indazol-5-yl)-3-methyl-3,7-dihydro-4H-pyrrolo[2,3-d]pyrimidin-4-one] | – | – | 0.16 µM | 7.5 nM
CCc1nc2ccc(-c3c[nH]c4nc(N5[C@@H]6CC[C@H]5C[C@@H](N)C6)n(C)c(=O)c34)c(Cl)c2s1 [Example 6, 2-(endo-3-amino-8-azabicyclo[3.2.1]octan-8-yl)-5-(7-chloro-2-ethylbenzo[d]thiazol-6-yl)-3-methyl-3,7-dihydro-4H-pyrrolo[2,3-d]pyrimidin-4-one] | – | – | 0.58 µM | 6.5 nM
Cc1nc2ccc(-c3c[nH]c4nc(N5[C@@H]6CC[C@H]5C[C@@H](N)C6)n(C)c(=O)c34)c(Cl)c2s1 [Example 7, 2-(endo-3-amino-8-azabicyclo[3.2.1]octan-8-yl)-5-(7-chloro-2-methylbenzo[d]thiazol-6-yl)-3-methyl-3,7-dihydro-4H-pyrrolo[2,3-d]pyrimidin-4-one] | – | – | 0.17 µM | 9 nM
Cn1cc2c(Cl)c(-c3c[nH]c4nc(N5[C@@H]6CC[C@H]5C[C@@H](N)C6)n(C)c(=O)c34)ccc2n1 [Example 8, 2-(endo-3-amino-8-azabicyclo[3.2.1]octan-8-yl)-5-(4-chloro-2-methyl-2H-indazol-5-yl)-3-methyl-3,7-dihydro-4H-pyrrolo[2,3-d]pyrimidin-4-one] | – | – | 0.095 µM | 11 nM
Cn1c(N2[C@@H]3CC[C@H]2C[C@@H](N)C3)nc2[nH]cc(-c3ccc4nn(C(C)(C)C)cc4c3Cl)c2c1=O [Example 9, 2-(endo-3-amino-8-azabicyclo[3.2.1]octan-8-yl)-5-(2-(tert-butyl)-4-chloro-2H-indazol-5-yl)-3-methyl-3,7-dihydro-4H-pyrrolo[2,3-d]pyrimidin-4-one] | – | – | 1.2 µM | 94 nM
Cn1cc2c(Cl)c(-c3c[nH]c4nc(N5[C@@H]6CC[C@H]5C[C@H](N)C6)n(C)c(=O)c34)ccc2n1 [Example 10, 2-(exo-3-amino-8-azabicyclo[3.2.1]octan-8-yl)-5-(4-chloro-2-methyl-2H-indazol-5-yl)-3-methyl-3,7-dihydro-4H-pyrrolo[2,3-d]pyrimidin-4-one] | – | – | 0.17 µM | 8.5 nM
CCn1cc2c(Cl)c(-c3c[nH]c4nc(N5CCC6(CCC[C@H]6N)CC5)n(C)c(=O)c34)ccc2n1 [Example 11, (R)-2-(1-amino-8-azaspiro[4.5]decan-8-yl)-5-(4-chloro-2-ethyl-2H-indazol-5-yl)-3-methyl-3,7-dihydro-4H-pyrrolo[2,3-d]pyrimidin-4-one] | – | – | 0.053 µM | 6.3 nM
CCn1cc2c(Cl)c(-c3c[nH]c4nc(N5CCC6(CC5)COC[C@H]6N)n(C)c(=O)c34)ccc2n1 [Example 12, (S)-2-(4-amino-2-oxa-8-azaspiro[4.5]decan-8-yl)-5-(4-chloro-2-ethyl-2H-indazol-5-yl)-3-methyl-3,7-dihydro-4H-pyrrolo[2,3-d]pyrimidin-4-one] | – | – | 0.12 µM | 11 nM
CCn1cc2c(Cl)c(-c3c[nH]c4nc(N5[C@@H]6CC[C@H]5C[C@@H](NC)C6)n(C)c(=O)c34)ccc2n1 [Example 13, 5-(4-chloro-2-ethyl-2H-indazol-5-yl)-3-methyl-2-(endo-3-(methylamino)-8-azabicyclo[3.2.1]octan-8-yl)-3,7-dihydro-4H-pyrrolo[2,3-d]pyrimidin-4-one] | – | – | 0.34 µM | 19 nM
CN[C@H]1C[C@H]2CC[C@@H](C1)N2c1nc2[nH]cc(-c3ccc4nn(C)cc4c3Cl)c2c(=O)n1C [Example 14, 5-(4-chloro-2-methyl-2H-indazol-5-yl)-3-methyl-2-(endo-3-(methylamino)-8-azabicyclo[3.2.1]octan-8-yl)-3,7-dihydro-4H-pyrrolo[2,3-d]pyrimidin-4-one] | – | – | 0.31 µM | 24 nM
CCn1cc2c(Cl)c(-c3c[nH]c4nc(N5[C@@H]6CC[C@H]5C[C@@](C)(N)C6)n(C)c(=O)c34)ccc2n1 [Example 15, 2-(endo-3-amino-3-methyl-8-azabicyclo[3.2.1]octan-8-yl)-5-(4-chloro-2-ethyl-2H-indazol-5-yl)-3-methyl-3,7-dihydro-4H-pyrrolo[2,3-d]pyrimidin-4-one] | – | – | 0.5 µM | 17 nM
Cn1cc2c(Cl)c(-c3c[nH]c4nc(N5[C@@H]6CC[C@H]5C[C@@](C)(N)C6)n(C)c(=O)c34)ccc2n1 [Example 16, 2-(endo-3-amino-3-methyl-8-azabicyclo[3.2.1]octan-8-yl)-5-(4-chloro-2-methyl-2H-indazol-5-yl)-3-methyl-3,7-dihydro-4H-pyrrolo[2,3-d]pyrimidin-4-one] | – | – | 0.11 µM | 11 nM
Cn1cc2c(Cl)c(-c3c[nH]c4nc(N5CC6COCC(C5)N6)n(C)c(=O)c34)ccc2n1 [Example 17, 2-(3-oxa-7,9-diazabicyclo[3.3.1]nonan-7-yl)-5-(4-chloro-2-methyl-2H-indazol-5-yl)-3-methyl-3,7-dihydro-4H-pyrrolo[2,3-d]pyrimidin-4-one] | – | – | 0.8 µM | 43 nM
Cn1cc2c(Cl)c(-c3c[nH]c4nc(N5C[C@@H]6C[C@H]5CN6)n(C)c(=O)c34)ccc2n1 [Example 21, 2-((1S,4S)-2,5-diazabicyclo[2.2.1]heptan-2-yl)-5-(4-chloro-2-methyl-2H-indazol-5-yl)-3-methyl-3,7-dihydro-4H-pyrrolo[2,3-d]pyrimidin-4-one] | – | – | 0.32 µM | 11 nM
